Measurements taken from the Bradley open melting point set (2014).
Several values for one entry are separate records, joined by “and”; a condition that tells them apart may be missing. Equal entries are not always repeated.

Q: Which melting point does the source give for `CCCC(=O)OCC` [Ethyl butyrate] here?
A: -93 °C

Q: For `CCc1cc(Br)ccc1NC(C)=O` [4'-bromo-2'-ethylacetanilide], which melting point is on record?
A: 143 °C

Q: With `O=[N+]([O-])c1cccc(F)c1` [1-fluoro-3-nitrobenzene] as the compound, how does the melting point read?
A: 2 °C

Q: For `CCCC(=O)Nc1ccc(OCC(O)CNC(C)C)c(C(C)=O)c1` (centres undefined) [acebutolol], which melting point is on record?
A: 119 °C

Q: Which melting point does the source give for `O=C(c1ccccc1)c1cccc(O)c1` [3-hydroxybenzophenone] here?
A: 114 °C

Q: For `ON=C1/CCCCC1` [N-Hydroxycyclohexanimine], which melting point is on record?
A: 90 °C

Q: For `[O-][n+]1ccc2ccccc2c1` [isoquinoline n-oxide], which melting point is on record?
A: 104 °C

Q: With `C1CCOCC1` [Tetrahydropyran] as the compound, how does the melting point read?
A: -45 °C

Q: Which melting point does the source give for `O=[N+]([O-])c1ccccc1O` [2-nitrophenol] here?
A: 46 °C

Q: With `Cc1cccc2ccccc12` [1-Methylnaphthalene] as the compound, how does the melting point read?
A: -22 °C

Q: With `CCCCCCCCCCc1ccc(-c2ccccc2)cc1` [4-n-decylbiphenyl] as the compound, how does the melting point read?
A: 53 °C

Q: Which melting point does the source give for `CCCCC(=O)O` [pentanoic acid] here?
A: -34 °C

Q: Which melting point does the source give for `CC(C)(C)C#N` [trimethylacetonitrile] here?
A: 17 °C

Q: With `CNC[C@H](O)c1ccc(O)c(O)c1` [epinephrine] as the compound, how does the melting point read?
A: 212 °C

Q: For `Brc1cc(Br)c(Br)cc1Br` [1,2,4,5-tetrabromobenzene], which melting point is on record?
A: 182 °C

Q: Which melting point does the source give for `CCC=O` [propanal] here?
A: -80 °C

Q: Which melting point does the source give for `CCCCCCCCCCCCCCCC(=O)O` [Palmitic acid] here?
A: 62.5 °C

Q: Which melting point does the source give for `CCOc1ccccc1OCC` [1,2-diethoxybenzene] here?
A: 44 °C

Q: With `Cc1cccc(N)n1` [2-amino-6-methylpyridine] as the compound, how does the melting point read?
A: 43 °C

Q: For `OC(c1ccccc1)(c1ccccc1)c1ccccc1` [triphenylmethanol], which melting point is on record?
A: 163 °C

Q: For `c1cc2c3c(cccc3c1)CC2` [acenaphthene], which melting point is on record?
A: 95 °C

Q: With `CCCCCCCO` [1-heptanol] as the compound, how does the melting point read?
A: -34 °C (2×) and -33.2 °C

Q: With `O=Cc1cc(B(O)O)ccc1F` [4-fluoro-3-formylbenzeneboronic acid] as the compound, how does the melting point read?
A: 240 °C

Q: With `CC1(C(=O)O)CCCCC1` [1-methylcyclohexanecarboxylic acid] as the compound, how does the melting point read?
A: 38 °C

Q: With `CCC1(c2ccccc2)NC(=O)N(C)C1=O` (centres undefined) [Mephenytoin] as the compound, how does the melting point read?
A: 135 °C

Q: For `COC(=O)c1ccccc1S(=O)(=O)Cl` [methyl 2-(chlorosulfonyl)benzoate], which melting point is on record?
A: 62 °C

Q: For `CCCC(C)S` (centres undefined) [2-pentanethiol], which melting point is on record?
A: -112 °C

Q: For `C[C@]12CC[C@H]3[C@@H](CCC4=CC(=O)CC[C@@]43C)[C@@H]1CC[C@@H]2OC(=O)CCc1ccccc1` [Testosterone phenylpropanoate], which melting point is on record?
A: 116 °C

Q: With `CC(=O)c1ccc(Cl)cc1Cl` [2,4-dichloroacetophenone] as the compound, how does the melting point read?
A: 34 °C

Q: Which melting point does the source give for `CCC1(CC)C(=O)NC(=O)NC1=O` [Barbital] here?
A: 190 °C

Q: For `O=C(O)/C=C/c1cccc(Cl)c1` [m-chlorocinnamic_acid__(trans)], which melting point is on record?
A: 159 °C

Q: With `O=C1CCCC1` [cyclopentanone] as the compound, how does the melting point read?
A: -51 °C

Q: Which melting point does the source give for `CCCCc1ccc(C#Cc2ccc(CCCC)cc2)cc1` [1-n-butyl-4-[(4-butylphenyl)ethynyl]benzene] here?
A: 41 °C

Q: With `OC1(c2ccc(Cl)cc2)CCNCC1` [4-(4-chlorophenyl)-4-hydroxypiperidine] as the compound, how does the melting point read?
A: 139 °C

Q: For `Cc1ccc(C)n1-c1ccc(F)cc1` [OSM-S-01], which melting point is on record?
A: 48.5 °C

Q: Which melting point does the source give for `CC(c1cc2ccccc2s1)N(O)C(N)=O` (centres undefined) [Zileuton] here?
A: 145 °C

Q: For `COc1ccc(C(=O)O)cc1Br` [3-bromo-4-methoxybenzoic acid], which melting point is on record?
A: 220 °C

Q: For `CC(O)C(=O)O` (centres undefined) [lactic acid], which melting point is on record?
A: 18 °C

Q: For `COC(=O)CCCCCCCCC(=O)OC` [Dimethyl sebacate], which melting point is on record?
A: 26.5 °C

Q: Which melting point does the source give for `O=C(C=C/C(=O)OCC)OCC` [diethyl_maleate] here?
A: -10 °C

Q: For `CC(=O)Nc1ccccc1O` [2-acetamidophenol], which melting point is on record?
A: 207 °C

Q: For `Cc1c(C)c(C)c(CCl)c(C)c1C` [2,3,4,5,6-pentamethylbenzyl chloride], which melting point is on record?
A: 83 °C

Q: For `O=CCCc1ccccc1` [3-phenylpropionaldehyde], which melting point is on record?
A: -42 °C

Q: Which melting point does the source give for `O=[N+]([O-])c1ccccc1CBr` [2-nitrobenzyl bromide] here?
A: 47 °C

Q: Which melting point does the source give for `O=C(CCl)c1ccccc1` [2-Chloro-1-phenylethanone] here?
A: 55 °C

Q: With `CCC(C)(C)C` [2,2-dimethylbutane] as the compound, how does the melting point read?
A: -100 °C

Q: Which melting point does the source give for `O=C1C(Cl)=CC(=NCl)C=C1Cl` [2,6-Dichloro-4-(chloroimino)cyclohexa-2,5-dien-1-one] here?
A: 67 °C

Q: With `COc1cc(C=O)cc(OC)c1OC` [3,4,5-trimethoxybenzaldehyde] as the compound, how does the melting point read?
A: 75 °C

Q: For `O=C(O)[C@@H](O)[C@H](O)C(=O)O` [(2S,3S)-2,3-Dihydroxysuccinic acid], which melting point is on record?
A: 173 °C

Q: With `C(#Cc1ccccc1)c1ccccc1` [diphenylacetylene] as the compound, how does the melting point read?
A: 63 °C

Q: Which melting point does the source give for `O=C(O)/C=C/c1c(F)cccc1F` [2,6-difluorocinnamic acid] here?
A: 125 °C

Q: For `CC(C)CCCC(C)C1CCC2C3CCC45CCC(=O)C4C5(C)C3CCC12C` (centres undefined) [1,5-cyclocholestan-2-one], which melting point is on record?
A: 164 °C

Q: With `Cc1ccc(C)c(Br)c1` [2-bromo-p-xylene] as the compound, how does the melting point read?
A: 10 °C

Q: Which melting point does the source give for `Cc1ccc(C(=O)OC2CC(C#N)OC2OC(=O)c2ccc(C)cc2)cc1` (centres undefined) here?
A: 111 °C

Q: With `C(=C/c1ccccc1)/c1ccccc1` [cis-stilbene] as the compound, how does the melting point read?
A: 2 °C

Q: For `C[C@@H]1CCC[C@H](C)C1` [cis-1,3-dimethylcyclohexane], which melting point is on record?
A: -76 °C

Q: Which melting point does the source give for `CC=O` [acetaldehyde] here?
A: -125 °C

Q: Which melting point does the source give for `OB(O)c1ccc(CBr)cc1` [4-(bromomethyl)benzeneboronic acid] here?
A: 148 °C

Q: With `CC(=O)Oc1ccccc1C(N)=O` [o-acetoxybenzamide] as the compound, how does the melting point read?
A: 138 °C

Q: With `CNC[C@H](O)c1ccc(O)c(O)c1` [Epinephrine] as the compound, how does the melting point read?
A: 212 °C

Q: For `CC(Oc1cc(Cl)c(Cl)cc1Cl)C(=O)O` (centres undefined) [2-(2,4,5-trichlorophenoxy)propionic acid], which melting point is on record?
A: 178 °C

Q: For `COc1ccc(/N=N/c2sc(CC#N)nc2C)cc1`, which melting point is on record?
A: 159 °C

Q: For `O=[N+]([O-])c1cccc(I)c1` [1-iodo-3-nitrobenzene], which melting point is on record?
A: 38 °C

Q: For `OC1CCCC1` [cyclopentanol], which melting point is on record?
A: -19 °C

Q: With `O=C(Nc1ccccc1)c1ccccc1` [benzanilide] as the compound, how does the melting point read?
A: 164 °C

Q: For `Cc1ccc(N)c(Cl)c1` [2-chloro-4-methylaniline], which melting point is on record?
A: 7 °C

Q: For `OB(O)c1cccs1` [thiophene-2-boronic acid], which melting point is on record?
A: 130 °C

Q: For `N#Cc1ccc(C2CCCc3cncn32)cc1` (centres undefined) [fadrozole], which melting point is on record?
A: 117 °C

Q: With `Cc1ccc(C(C)C)cc1` [p-cymene] as the compound, how does the melting point read?
A: -68 °C

Q: With `CC(=O)Nc1ccc([N+](=O)[O-])cc1` [4'-nitroacetanilide] as the compound, how does the melting point read?
A: 216 °C

Q: Which melting point does the source give for `CC(=O)C(C)(C)C` [3,3-Dimethylbutan-2-one] here?
A: -52.5 °C

Q: Which melting point does the source give for `C(=N\c1ccccc1Nc1ccccc1/N=C/c1ccccc1)/c1ccccc1` here?
A: 103 °C

Q: Which melting point does the source give for `COc1cccc(O)c1` [3-methoxyphenol] here?
A: -18 °C

Q: Which melting point does the source give for `O=Cc1cccc2ccccc12` [1-naphthaldehyde] here?
A: 2 °C

Q: With `CC1(C)C(=O)OC2=C(CCC/C2=C\c2ccccc2)C1c1ccccc1` (centres undefined) as the compound, how does the melting point read?
A: 156 °C

Q: For `O=Cc1ccc(Oc2ccccc2)cc1` [4-phenoxybenzaldehyde], which melting point is on record?
A: 25 °C

Q: For `COC(=O)c1ccc(O)cc1` [methyl 4-hydroxybenzoate], which melting point is on record?
A: 131 °C and 127 °C

Q: With `c1ccc2c(c1)Sc1ccccc1S2` [Thianthrene] as the compound, how does the melting point read?
A: 159 °C

Q: Which melting point does the source give for `OCCCCCCCCCCc1ccccc1` [10-Phenyldecan-1-ol] here?
A: 36 °C

Q: For `Nc1ccc2ccc3cccc4ccc1c2c34` [1-aminopyrene], which melting point is on record?
A: 118 °C

Q: With `CS(=O)(=O)c1ccc(C(=O)O)cc1` [4-(methylsulfonyl)benzoic acid] as the compound, how does the melting point read?
A: 273 °C

Q: With `CC(C)c1cccc(B(O)O)c1` [3-isopropylbenzeneboronic acid] as the compound, how does the melting point read?
A: 78 °C

Q: With `CN(N)c1ccc(C(F)(F)F)cc1[N+](=O)[O-]` [N-methyl-N-[2-nitro-4-(trifluoromethyl)phenyl]hydrazine] as the compound, how does the melting point read?
A: 66 °C

Q: Which melting point does the source give for `CCC(O)C(C)(C)C` (centres undefined) [2,2-dimethyl-3-pentanol] here?
A: -5 °C

Q: Which melting point does the source give for `NC(=O)[C@H](Cc1ccccc1)NC(=O)OCc1ccccc1` [Nalpha-[(benzyloxy)carbonyl]phenylalaninamide] here?
A: 163 °C

Q: Which melting point does the source give for `Cc1ccc([N+](=O)[O-])cc1Cl` [2-chloro-4-nitrotoluene] here?
A: 64 °C

Q: Which melting point does the source give for `CC1(C)C=Nc2ccccc21` [3,3-dimethyl-3H-indole] here?
A: 228 °C

Q: Which melting point does the source give for `C=CCSCC=C` [diallyl sulfide] here?
A: -83 °C

Q: Which melting point does the source give for `COP(=O)(OC)C(O)C(Cl)(Cl)Cl` (centres undefined) [Dimethyl (2,2,2-trichloro-1-hydroxyethyl)phosphonate] here?
A: 83 °C

Q: Which melting point does the source give for `O=C(O)c1cc(Cl)c(C(=O)O)cc1Cl` [2,5-dichloroterephthalic acid] here?
A: 295 °C

Q: With `COc1cccc2c1C(=O)C2` [5-methoxybicyclo[4.2.0]octa-1,3,5-trien-7-one] as the compound, how does the melting point read?
A: 35 °C

Q: For `NC=O` [formamide], which melting point is on record?
A: 2 °C

Q: For `CCCCOCCOCCO` [diethylene glycol mono-n-butyl ether], which melting point is on record?
A: -68 °C

Q: Which melting point does the source give for `CCCI` [1-iodopropane] here?
A: -101 °C

Q: For `O=C5\C=C4/C(C3CCC2(C(CCC2OC(=O)Cc1ccccc1)C3CC4)C)(C)CC5` (centres undefined) [Testosterone phenylacetate], which melting point is on record?
A: 129 °C

Q: Which melting point does the source give for `Clc1ccc2ncccc2c1` [6-chloroquinoline] here?
A: 35 °C

Q: With `COC(=O)[C@@H](N)Cc1ccc(O)cc1` [Methyl L-tyrosinate] as the compound, how does the melting point read?
A: 134 °C

Q: With `O=C(O)/C(=C/c1ccc([N+](=O)[O-])cc1)c1ccccc1` [(E)-2-phenyl-3-(4-nitrophenyl)propenoic acid] as the compound, how does the melting point read?
A: 216 °C

Q: With `COc1cc2nc(N3CCN(C(=O)c4ccco4)CC3)nc(N)c2cc1OC` [prazosin] as the compound, how does the melting point read?
A: 285 °C

Q: Which melting point does the source give for `CCOC(=O)/C(C#N)=N\Nc1cccc([N+](=O)[O-])c1` [Ethyl (2Z)-cyano[(3-nitrophenyl)hydrazono]acetate] here?
A: 156 °C

Q: For `CCCCCCCCC(C)O` (centres undefined) [2-decanol], which melting point is on record?
A: -5 °C

Q: For `CCN(CC)CCOC(=O)C(O)(c1ccccc1)c1ccccc1` [benactyzin], which melting point is on record?
A: 51 °C

Q: With `c1cc2cccc3c4cccc5cccc(c(c1)c23)c54` [Perylene] as the compound, how does the melting point read?
A: 278 °C

Q: For `CC(=O)Nc1ccc(O)cc1` [acetaminophen], which melting point is on record?
A: 169 °C
